Results published in patent US20100137313A1 (ASTRAZENECA AB, priority 2008, published 2010).

Target: S. pneumoniae Topoisomerase IV ATPase (ParE) (Streptococcus pneumoniae serotype 4, UniProt Q59961)
Assay: S. pneumoniae Topoisomerase IV ATPase inhibition
Type: biochemical
Conditions: values marked * are an average of two or more data points, read-out: % Inh (13 μM) of S. pneumoniae Topoisomerase IV ATPase
How it was run: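 Phosphate release by ParE ATPase from S. pneumoniae read colorimetrically (malachite green, 650 nm), enzyme 1.25 nM, ATP 160 μM, salmon sperm DNA present, buffer 20 mM Tris pH 8.0 with 8 mM MgCl2. IC50 over 10 compound concentrations, EDTA (20 μM) and DMSO controls defining inhibition range.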

S. pneumoniae Topoisomerase IV ATPase (ParE), sequence (Q59961 whole entry): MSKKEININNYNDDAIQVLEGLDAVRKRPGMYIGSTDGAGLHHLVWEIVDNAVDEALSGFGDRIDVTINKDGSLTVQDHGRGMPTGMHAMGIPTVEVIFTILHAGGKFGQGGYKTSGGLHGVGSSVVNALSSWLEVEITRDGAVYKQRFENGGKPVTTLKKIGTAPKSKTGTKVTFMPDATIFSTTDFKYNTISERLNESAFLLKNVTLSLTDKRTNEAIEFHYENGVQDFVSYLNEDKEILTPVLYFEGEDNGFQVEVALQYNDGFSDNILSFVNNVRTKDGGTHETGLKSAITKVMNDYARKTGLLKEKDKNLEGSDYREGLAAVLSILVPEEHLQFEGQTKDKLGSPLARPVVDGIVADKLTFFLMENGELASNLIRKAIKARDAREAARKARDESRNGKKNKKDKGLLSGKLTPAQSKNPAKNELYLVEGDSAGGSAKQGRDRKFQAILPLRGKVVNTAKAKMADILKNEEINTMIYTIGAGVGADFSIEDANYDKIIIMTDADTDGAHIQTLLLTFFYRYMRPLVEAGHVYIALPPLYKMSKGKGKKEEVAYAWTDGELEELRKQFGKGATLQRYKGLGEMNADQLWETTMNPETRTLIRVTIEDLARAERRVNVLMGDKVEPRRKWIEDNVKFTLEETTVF

Compound	inhibition at 13 µM [%]
O=S(=O)(NCCO)c1cccc(-c2cnc(Nc3ccc(F)c(Cl)c3)nc2-n2ccc(C(F)(F)F)n2)c1 [Example 997, 3-(2-(3-Chloro-4-fluorophenylamino)-4-(3-(trifluoromethyl)-1H-pyrazol-1-yl)pyrimidin-5-yl)-N-(2-hydroxyethyl)benzenesulfonamide]	100
CCNC(=O)NS(=O)(=O)c1cccc(-c2cnc(Nc3ccc(F)c(Cl)c3)nc2-n2ccc(C(F)(F)F)n2)c1 [Example 998, 3-(2-(3-Chloro-4-fluorophenylamino)-4-(3-(trifluoromethyl)-1H-pyrazol-1-yl)pyrimidin-5-yl)-N-(ethylcarbamoyl)benzenesulfonamide]	100
CCNS(=O)(=O)c1cncc(-c2cnc(Nc3ccc(F)c(Cl)c3)nc2-n2ccc(C(F)(F)F)n2)c1 [Example 1000, 5-(2-(3-Chloro-4-fluorophenylamino)-4-(3-(trifluoromethyl)-1H-pyrazol-1-yl)pyrimidin-5-yl)-N-ethylpyridine-3-sulfonamide]	64
CS(=O)(=O)NC(=O)c1cccc(-c2cnc(Nc3ccc(F)c(Cl)c3)nc2-n2ccc(C(F)(F)F)n2)c1 [Example 1002, 3-(2-(3-Chloro-4-fluorophenylamino)-4-(3-(trifluoromethyl)-1H-pyrazol-1-yl)pyrimidin-5-yl)-N-(methylsulfonyl)benzamide]	100
COC(=O)c1cc(-c2cnc(Nc3ccc(F)c(Cl)c3)nc2-n2nc(C(F)(F)F)cc2C)cnc1OC [Example 1008, Methyl 5-(2-(3-chloro-4-fluorophenylamino)-4-(5-methyl-3-(trifluoromethyl)-1H-pyrazol-1-yl)pyrimidin-5-yl)-2-methoxynicotinate]	83
O=C1NC(=O)c2cc(-c3cnc(Nc4ccc(F)c(Cl)c4)nc3-n3ccc(C(F)(F)F)n3)ccc21 [Example 1009, 5-(2-(3-Chloro-4-fluorophenylamino)-4-(3-(trifluoromethyl)-1H-pyrazol-1-yl)pyrimidin-5-yl)isoindole-1,3-dione]	92
COC(=O)c1cc(-c2cnc(Nc3ccc(F)c(Cl)c3)nc2-n2ccc(C(F)(F)F)n2)cnc1OC [Example 1010, Methyl 5-(2-(3-chloro-4-fluorophenylamino)-4-(3-(trifluoromethyl)-1H-pyrazol-1-yl)pyrimidin-5-yl)-2-methoxynicotinate]	81
CCS(=O)(=O)NC(=O)c1cc(-c2cnc(Nc3ccc(F)c(Cl)c3)nc2-n2ccc(C(F)(F)F)n2)cnc1OC [Example 1016, 5-(2-(3-Chloro-4-fluorophenylamino)-4-(3-(trifluoromethyl)-1H-pyrazol-1-yl)pyrimidin-5-yl)-N-(ethylsulfonyl)-2-methoxynicotinamide]	94
CCS(=O)(=O)NC(=O)c1cc(-c2cnc(Nc3ccc(F)c(Cl)c3)nc2-n2nc(C(F)(F)F)cc2C)cnc1OC [Example 1017, 5-(2-(3-Chloro-4-fluorophenylamino)-4-(5-methyl-3-(trifluoromethyl)-1H-pyrazol-1-yl)pyrimidin-5-yl)-N-(ethylsulfonyl)-2-methoxynicotinamide]	90
COc1cc(Nc2ncc(-c3cc(C(=O)NS(C)(=O)=O)c(=O)n(C)c3)c(-n3ccc(C(F)(F)F)n3)n2)cc(OC)c1 [Example 1019, 5-(2-(3,5-Dimethoxyphenylamino)-4-(3-(trifluoromethyl)-1H-pyrazol-1-yl)pyrimidin-5-yl)-1-methyl-N-(methylsulfonyl)-2-oxo-1,2-dihydropyridine-3-carboxamide]	100
COc1ncc(-c2cnc(Nc3ccc(F)c(Cl)c3)nc2-n2ccc(C(F)(F)F)n2)cc1C(=O)NS(C)(=O)=O [Example 1024, 5-(2-(3-Chloro-4-fluorophenylamino)-4-(3-(trifluoromethyl)-1H-pyrazol-1-yl)pyrimidin-5-yl)-2-methoxy-N-(methylsulfonyl)nicotinamide]	100
